Laboratory results taken from patent US20250049741A1, “COMPOSITION FOR PREVENTING OR TREATING ALZHEIMER'S DISEASE COMPRISING PHOSPHOLIPASE C ACTIVATOR AS AN ACTIVE INGREDIENT” (Korea University Research and Business Foundation, priority 2021, published 2025).

How the values were obtained:
[1] = test system: hippocampal CA3-CA1 excitatory synapses; assay: S-eCB mobilization induced spike timing-dependent potentiation (tLTP) protocol, EPSP slope; type: cell-based, Sprague-Dawley rats; details: m-3M3FBS 30 μM; AβO-treated rat hippocampal slices; similar to level in DMSO-treated slices
Description: Soluble AβO was prepared according to a previous study (BMC Biol. 2020; 18(1):7). Specifically, Aβ1-42 (Aβ) and a scrambled form of Aβ as a control peptide were purchased in powder form. Aβ and scrambled Aβ were dissolved for monomerization in 1,1,1,3,3,3-hexafluoro-2-propanol (HFIP, Sigma Aldrich, USA) at a final concentration of 1 mM, and the solution was incubated for 90 minutes. After the HFIP was evaporated, the remaining thin and clear film of Aβ or scrambled Aβ was dissolved in dimethyl sulfoxide (DMSO, Sigma Aldrich, USA) to prepare 5 mM Aβ or scrambled Aβ stocks, which were aliquoted and frozen at −20° C. Aβ or scrambled Aβ stocks were thawed and diluted to 100 μM in artificial cerebrospinal fluid (ACSF). Thereafter, Aβ or scrambled Aβ stocks were incubated for oligomerization for 18 hours. The final AβO or scrambled AβO stock solution was diluted to a final concentration of 200 nM in 31.2 ml of ACSF, and rat hippocampal slices were treated with the stock solution for 20 minutes in a recovery chamber before measurement of brain signals. In control experiments for normal brain conditions using a vehicle, rat hippocampal slices were treated with 0.004% DMSO in ACSF.
The brains of SD rats were isolated following decapitation under isoflurane-induced anesthesia and transferred into ice-cold ACSF containing 126 mM NaCl, […], 1.25 mM NaH2PO4, 2 mM MgSO4, 2 mM CaCl2), 25 mM NaHCO3, and 10 mM glucose (pH 7.2 to 7.4). The ACSF was continuously oxygenated with 95% O2/5% CO2. Horizontal hippocampal slices (350 μm thickness) were obtained using a vibratome (VT1000S, Leica Biosystems, Germany) and immediately incubated at room temperature in a submerged chamber perfused with oxygenated ACSF for at least 1 hour.

PLCβ1 = assay: Western blot of hippocampal PLCβ1 after stereotaxic drug injection in 5XFAD mice; type: in vivo; details: m-3M3FBS (50 μM, 0.5 μl per site) injected into dorsal and ventral bilateral hippocampi; three days after injection
From the text: To test the acute effect of AβO on hippocampal S-eCB mobilization, hippocampal slices from Sprague-Dawley rats (SD, 2 to 3 weeks old, […] Biolink, Co., Ltd., Korea) were used. Male and female rats were used in all in vitro experiments. To test the chronic effect of AβO on hippocampus-dependent memory impairments caused by amyloidosis, the 5XFAD mouse model (6 to 7 months old, #34840-JAX, Jackson Laboratory, USA), which is a mouse model of Alzheimer's disease that mimics AβO depositions, was used. C57BL/6 mice (6 to 7 months old, KOATECH, Korea) were used as wild type (WT) control mice for 5XFAD mice. Male 5XFAD and C57BL/6 mice were used for all in vivo behavioral experiments. The 5XFAD mouse genotypes were identified by polymerase chain reaction (PCR) using DNA extracted from the tails of the mice. All animal-related procedures followed the guidelines of the Institutional Animal Care and Use Committee of Korea University (guidelines for SD rats: KUIACUC-2017-103, guidelines for C57BL/6 and 5XFAD mice: KUIACUC-2019-0068). […] Immunoreactivity was confirmed with enhanced chemiluminescence (Bio-Rad, USA) using a Fluorchem E system (ProteinSimple, USA) and analyzed with ImageJ software. […]

Cc1cc(C)c(S(=O)(=O)Nc2cccc(C(F)(F)F)c2)c(C)c1 [m-3M3FBS]
tLTP in AβO-treated slices [1]: completely recovered
hippocampal PLCβ1 protein levels in 5XFAD mice (PLCβ1): completely recovered
